Values quoted from earlier work, collected in publication PMC8400941, “Preclinical Toxicity and Safety of MM-129—First-in-Class BTK/PD-L1 Inhibitor as a Potential Candidate against Colon Cancer” (Pharmaceutics, 2021).

Columns and labels:
patients = conditions: chemotherapy regimens used in CRC; cited from earlier work
[1] = parameters: method as in PMID 24079553; conditions: cited from earlier work
zebrafish embryos/larvae = conditions: 5 μM; cited from earlier work
BFU-E growth = tested on: BFU-E growth; parameters: method as in PMID 17318617; conditions: multiple administration, 350 mg/kg/day, transient; cited from earlier work

## O=c1[nH]cc(F)c(=O)[nH]1 [5-FU, 5-fluorouracil]
patients
  patients with hepatotoxicity: up to 47%

## CC[C@H](CO)Nc1nc(NCc2ccc(-c3ccccn3)cc2)c2ncn(C(C)C)c2n1 [CR8]
[1]
  elimination half-life: about 3 h

## CC[C@H](CO)Nc1nc(NCc2ccccc2)c2ncn(C(C)C)c2n1 [seliciclib]
Zebrafish embryos/larvae
  embryos with absence of swimming activity, lack of heartbeat and tail blood flow: 57%
  larvae with curved body: 50%
  larvae with edema (both mild and severe): 82%
BFU-E growth
  BFU-E growth, of the controls: less than 50%
